From PubChem BioAssay (NCI)
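Here, GI50 denotes the concentration required for 50% inhibition of growth. TGI: concentration producing complete growth inhibition.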

Assays:
Assay in all cases: DTP human tumour cell line panel, 384-well format
TK-10 renal = test system: TK-10 renal
M14 melanoma = test system: M14 melanoma
MALME-3M melanoma = test system: MALME-3M melanoma
BT-549 breast = test system: BT-549 breast
NCI-H23 lung = test system: NCI-H23 lung
HCT-116 colon = test system: HCT-116 colon
HS 578T breast = test system: HS 578T breast
SK-OV-3 ovarian = test system: SK-OV-3 ovarian
SNB-19 CNS = test system: SNB-19 CNS
PC-3 prostate = test system: PC-3 prostate
NCI-H460 NSCLC = test system: NCI-H460 NSCLC
UACC-62 melanoma = test system: UACC-62 melanoma
SN12C renal = test system: SN12C renal
786-0 renal = test system: 786-0 renal
HCC-2998 colon = test system: HCC-2998 colon
T-47D breast = test system: T-47D breast
MDA-MB-231 breast = test system: MDA-MB-231 breast
U251 glioblastoma = test system: U251 glioblastoma
DU-145 prostate = test system: DU-145 prostate
NCI-H522 lung = test system: NCI-H522 lung
OVCAR-4 ovarian = test system: OVCAR-4 ovarian
KM12 colon = test system: KM12 colon
SW-620 colon = test system: SW-620 colon
MDA-MB-435 melanoma = test system: MDA-MB-435 melanoma
UACC-257 melanoma = test system: UACC-257 melanoma
HT29 colon = test system: HT29 colon
SK-MEL-5 melanoma = test system: SK-MEL-5 melanoma
NCI/ADR-RES ovarian = test system: NCI/ADR-RES ovarian
HL-60(TB) leukemia = test system: HL-60(TB) leukemia
ACHN renal = test system: ACHN renal
OVCAR-8 ovarian = test system: OVCAR-8 ovarian
SNB-75 CNS = test system: SNB-75 CNS
COLO 205 colon = test system: COLO 205 colon
HOP-62 NSCLC = test system: HOP-62 NSCLC
NCI-H322M lung = test system: NCI-H322M lung
K-562 leukemia = test system: K-562 leukemia
HOP-92 NSCLC = test system: HOP-92 NSCLC
A549 NSCLC = test system: A549 NSCLC
OVCAR-5 ovarian = test system: OVCAR-5 ovarian
A498 renal = test system: A498 renal
HCT-15 colon = test system: HCT-15 colon
CAKI-1 renal = test system: CAKI-1 renal
SF-539 CNS = test system: SF-539 CNS
MDA-MB-468 breast = test system: MDA-MB-468 breast
RPMI-8226 leukemia = test system: RPMI-8226 leukemia
CCRF-CEM leukemia = test system: CCRF-CEM leukemia
SF-268 CNS = test system: SF-268 CNS
MOLT-4 leukemia = test system: MOLT-4 leukemia
OVCAR-3 ovarian = test system: OVCAR-3 ovarian
MCF7 breast = test system: MCF7 breast
RXF 393 renal = test system: RXF 393 renal
IGROV1 ovarian = test system: IGROV1 ovarian
UO-31 renal = test system: UO-31 renal
LOX IMVI melanoma = test system: LOX IMVI melanoma
EKVX NSCLC = test system: EKVX NSCLC
NCI-H226 lung = test system: NCI-H226 lung
SK-MEL-28 melanoma = test system: SK-MEL-28 melanoma
SF-295 CNS = test system: SF-295 CNS

`N#Cc1c(Oc2ccc(F)c(NC(=O)Cc3cccc(C(F)(F)F)c3)c2)ccc2nc(NC(=O)C3CC3)sc12` gave a GI50 (TK-10 renal) of 311 nM, a TGI (TK-10 renal) of 3.52 µM and a GI50 (M14 melanoma) of 12.5 nM. It also gave a TGI (M14 melanoma) of 117 nM, a TGI (MALME-3M melanoma) of 30.9 nM and a GI50 (BT-549 breast) of 1320 nM. For the same compound, the TGI (BT-549 breast) was over 100 µM, the GI50 (NCI-H23 lung) was 98.9 nM and the TGI (NCI-H23 lung) was 1260 nM. It also gave a GI50 (HCT-116 colon) of 158 nM, a TGI (HCT-116 colon) of 1850 nM and a GI50 (HS 578T breast) of 698 nM. The TGI (HS 578T breast) was 2520 nM, the GI50 (SK-OV-3 ovarian) was 1790 nM and the TGI (SK-OV-3 ovarian) was over 100 µM. For the same compound, the GI50 (SNB-19 CNS) was 2630 nM, the TGI (SNB-19 CNS) was over 100 µM and the GI50 (PC-3 prostate) was 1420 nM. For the same compound, the TGI (PC-3 prostate) was over 100 µM, the GI50 (NCI-H460 NSCLC) was 745 nM and the TGI (NCI-H460 NSCLC) was over 100 µM. It also gave a GI50 (UACC-62 melanoma) of 15.2 nM, a TGI (UACC-62 melanoma) of 106 nM and a GI50 (SN12C renal) of 461 nM. The TGI (SN12C renal) was 4.71 µM, the GI50 ([…]-0 renal) was 913 nM and the TGI (786-0 renal) was 7.15 µM. For the same compound, the GI50 (HCC-2998 colon) was 291 nM, the TGI (HCC-2998 colon) was 7.01 µM and the GI50 (T-47D breast) was 1200 nM. It also gave a TGI (T-47D breast) of 6.7 µM, a GI50 (MDA-MB-231 breast) of 78.3 nM and a TGI (MDA-MB-231 breast) of 2520 nM. The GI50 (U251 glioblastoma) was 486 nM, the TGI (U251 glioblastoma) was 8.26 µM and the GI50 (DU-145 prostate) was 2770 nM. The TGI (DU-145 prostate) was over 100 µM, the GI50 (NCI-H522 lung) was 484 nM and the TGI (NCI-H522 lung) was 5.65 µM. The GI50 (OVCAR-4 ovarian) was 3.64 µM, the TGI (OVCAR-4 ovarian) was over 100 µM and the GI50 (KM12 colon) was 1210 nM. For the same compound, the TGI (KM12 colon) was over 100 µM, the GI50 (SW-620 colon) was 470 nM and the TGI (SW-620 colon) was 8.51 µM. For the same compound, the GI50 (MDA-MB-435 melanoma) was 62.2 nM, the TGI (MDA-MB-435 melanoma) was over 100 µM and the GI50 (UACC-257 melanoma) was 26.6 nM. It also gave a TGI (UACC-257 melanoma) of 138 nM, a GI50 (HT29 colon) of 64.2 nM and a TGI (HT29 colon) of over 100 µM. For the same compound, the GI50 (SK-MEL-5 melanoma) was 17.1 nM, the TGI (SK-MEL-5 melanoma) was 1680 nM and the GI50 (NCI/ADR-RES ovarian) was 1030 nM. It also gave a TGI (NCI/ADR-RES ovarian) of 4.65 µM, a GI50 (HL-60(TB) leukemia) of 80.5 nM and a TGI (HL-60(TB) leukemia) of 914 nM. The GI50 (ACHN renal) was 755 nM, the TGI (ACHN renal) was over 100 µM and the GI50 (OVCAR-8 ovarian) was 746 nM. For the same compound, the TGI (OVCAR-8 ovarian) was over 100 µM, the GI50 (SNB-75 CNS) was 1300 nM and the TGI (SNB-75 CNS) was 4.36 µM. For the same compound, the GI50 (COLO 205 colon) was 31.1 nM, the TGI (COLO 205 colon) was 2640 nM and the GI50 (HOP-62 NSCLC) was 1700 nM. For the same compound, the TGI (HOP-62 NSCLC) was over 100 µM, the GI50 (NCI-H322M lung) was 1330 nM and the TGI (NCI-H322M lung) was over 100 µM. It also gave a GI50 (K-562 leukemia) of 114 nM, a TGI (K-562 leukemia) of 300 nM and a GI50 (HOP-92 NSCLC) of 783 nM. For the same compound, the TGI (HOP-92 NSCLC) was 2250 nM, the GI50 (A549 NSCLC) was 1870 nM and the TGI (A549 NSCLC) was over 100 µM. It also gave a GI50 (OVCAR-5 ovarian) of 677 nM, a TGI (OVCAR-5 ovarian) of 9.85 µM and a GI50 (A498 renal) of 1700 nM. For the same compound, the TGI (A498 renal) was 5.2 µM, the GI50 (HCT-15 colon) was 401 nM and the TGI (HCT-15 colon) was over 100 µM. It also gave a GI50 (CAKI-1 renal) of 1140 nM, a TGI (CAKI-1 renal) of 8.63 µM and a GI50 (SF-539 CNS) of 1070 nM. For the same compound, the TGI (SF-539 CNS) was 3.06 µM, the GI50 (MDA-MB-468 breast) was 1060 nM and the TGI (MDA-MB-468 breast) was 6.56 µM. It also gave a GI50 (RPMI-8226 leukemia) of 198 nM, a TGI (RPMI-8226 leukemia) of 847 nM and a GI50 (CCRF-CEM leukemia) of 263 nM. It also gave a TGI (CCRF-CEM leukemia) of 2970 nM, a GI50 (SF-268 CNS) of 39.5 nM and a TGI (SF-268 CNS) of 263 nM. For the same compound, the GI50 (MOLT-4 leukemia) was 97.5 nM, the TGI (MOLT-4 leukemia) was 238 nM and the GI50 (OVCAR-3 ovarian) was 2410 nM. It also gave a TGI (OVCAR-3 ovarian) of 82.1 µM, a GI50 (MCF7 breast) of 717 nM and a TGI (MCF7 breast) of over 100 µM. For the same compound, the GI50 (RXF 393 renal) was 159 nM, the TGI (RXF 393 renal) was 1600 nM and the GI50 (IGROV1 ovarian) was 434 nM. The TGI (IGROV1 ovarian) was 3.11 µM, the GI50 (UO-31 renal) was 427 nM and the TGI (UO-31 renal) was 2220 nM. It also gave a GI50 (LOX IMVI melanoma) of 41.8 nM, a TGI (LOX IMVI melanoma) of 992 nM and a GI50 (EKVX NSCLC) of 3.8 µM. It also gave a TGI (EKVX NSCLC) of 35.6 µM, a GI50 (NCI-H226 lung) of 312 nM and a TGI (NCI-H226 lung) of 4.19 µM. The GI50 (SK-MEL-28 melanoma) was 16.7 nM, the TGI (SK-MEL-28 melanoma) was 68 nM and the GI50 (SF-295 CNS) was 516 nM. The TGI (SF-295 CNS) was over 100 µM.
